Legend:
[1] = test system: Total ATXN3 (tATXN3) protein; assay: Endogenous Total ATXN3 (tATXN3) Protein Assay (MSD immunoassay of cell lysates); assay type: cell-based; details: average IC50, total ATXN3 protein in cell lysate after 48 h with compound (Table 1)
In short: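 By electrochemiluminescent MSD sandwich immunoassay (mouse monoclonal capture, rabbit monoclonal and SULFO-TAG anti-rabbit detection), endogenous ATXN3 was quantified in lysates of cells treated 48 h at 37° C at 10,000 cells/well. Treatment used a 7-point 3.16-fold duplicate dilution series, with average IC50 grouped into star categories.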

[2] = test system: ATXN3 pre-mRNA; assay: RT-qPCR Assay to Quantify Exon 4 Skipping in ATXN3 pre-mRNA in Cells; assay type: cell-based; details: percent exon 4 skipping in ATXN3 pre-mRNA, RT-qPCR of cell lysates; average IC50
In short: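 IC50 derives from a dose-response fit of percent exon 4 skipping, quantified by RT-qPCR on crude lysates. Compounds tested as 7-point 3.16-fold dilutions in duplicate; cells (10,000/well) were exposed for 24 h at 37 °C before lysis.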

| Compound | IC50 [1] | IC50 [2] |
| --- | --- | --- |
| N[C@@H]1CC=CC[C@H]1c1sc2c(NCc3cccs3)cc(Cl)nc2c1I.N[C@H]1CC=CC[C@@H]1c1sc2c(NCc3cccs3)cc(Cl)nc2c1I (mixture of isomers) [Compound 365, 2-((1R,6R)-6-aminocyclohex-3-en-1-yl)-5-chloro-3-iodo-N-(thiophen-2-ylmethyl)thieno[3,2-b]pyridin-7-amine and 2-((1S,6S)-6-aminocyclohex-3-en-1-yl)-5-chloro-3-iodo-N-(thiophen-2-ylmethyl)thieno[3,2-b]pyridin-7-amine] | 30 to 300 nM | 30 to 300 nM |
| N[C@@H]1CC=CC[C@H]1c1sc2c(NCc3cccs3)nc(Cl)nc2c1I [Compound 362, 6-((1R,6R)-6-aminocyclohex-3-en-1-yl)-2-chloro-7-iodo-N-(thiophen-2-ylmethyl)thieno[3,2-d]pyrimidin-4-amine] | 30 to 300 nM | 30 to 300 nM |
| N[C@H]1CCC[C@@H]1c1sc2c(NCc3cccs3)cc(Cl)nc2c1Cl [Compound 1, 2-((1S,2S)-2-aminocyclopentyl)-3,5-dichloro-N-(thiophen-2-ylmethyl)thieno[3,2-b]pyridin-7-amine] | ≤ 30 nM | ≤ 30 nM |
| N[C@H]1CC=CC[C@@H]1c1sc2c(NCc3ccncc3)cc(Cl)nc2c1Cl [Compound 203, 2-((1S,6S)-6-aminocyclohex-3-en-1-yl)-3,5-dichloro-N-(pyridin-4-ylmethyl)thieno[3,2-b]pyridin-7-amine] | ≤ 30 nM | ≤ 30 nM |
| 2-((3R,4S)-3-aminotetrahydro-2H-pyran-4-yl)-5-chloro-3-iodo-N-(thiophen-2-ylmethyl)thieno[3,2-b]pyridin-7-amine and 2-((3S,4R)-3-aminotetrahydro-2H-pyran-4-yl)-5-chloro-3-iodo-N-(thiophen-2-ylmethyl)thieno[3,2-b]pyridin-7-amine [Compound 275] | 30 to 300 nM | 30 to 300 nM |
| N[C@H]1CCCO[C@@H]1c1sc2c(NCc3ccco3)nc(Cl)nc2c1Br [Compound 143, 6-((2S,3S)-3-aminotetrahydro-2H-pyran-2-yl)-7-bromo-2-chloro-N-(furan-2-ylmethyl)thieno[3,2-d]pyrimidin-4-amine] | ≤ 30 nM | ≤ 30 nM |
| N[C@@H]1CCOC[C@H]1c1sc2c(NCc3ccco3)cc(Cl)nc2c1Cl [Compound 389, 2-((3S,4R)-4-aminotetrahydro-2H-pyran-3-yl)-3,5-dichloro-N-(furan-2-ylmethyl)thieno[3,2-b]pyridin-7-amine] | 300 to 1000 nM | 300 to 1000 nM |
| CC#CCNc1cc(Cl)nc2c(Br)c([C@H]3CCOC[C@@H]3N)sc12 [Compound 398, 2-((3R,4S)-3-aminotetrahydro-2H-pyran-4-yl)-3-bromo-N-(but-2-yn-1-yl)-5-chlorothieno[3,2-b]pyridin-7-amine] | 300 to 1000 nM | 30 to 300 nM |
| CC#CCNc1cc(Cl)nc2c(I)c([C@H]3CCCC[C@@H]3N)sc12 [Compound 283, 2-((1S,2S)-2-aminocyclohexyl)-N-(but-2-yn-1-yl)-5-chloro-3-iodothieno[3,2-b]pyridin-7-amine] | 30 to 300 nM | 30 to 300 nM |
| N[C@H]1CC=CC[C@@H]1c1sc2c(NCc3ccsc3)cc(Cl)nc2c1Br [Compound 217, 2-((1S,6S)-6-aminocyclohex-3-en-1-yl)-3-bromo-5-chloro-N-(thiophen-3-ylmethyl)thieno[3,2-b]pyridin-7-amine] | ≤ 30 nM | ≤ 30 nM |
| N[C@@H]1CC=CC[C@H]1c1sc2c(NCc3ccncc3)cc(Cl)nc2c1Br [Compound 373, 2-((1R,6R)-6-aminocyclohex-3-en-1-yl)-3-bromo-5-chloro-N-(pyridin-4-ylmethyl)thieno[3,2-b]pyridin-7-amine] | 30 to 300 nM | 30 to 300 nM |
| Cc1c([C@H]2CC=CC[C@@H]2N)sc2c(NCc3ccco3)nc(Cl)nc12 [Compound 193, 6-((1S,6S)-6-aminocyclohex-3-en-1-yl)-2-chloro-N-(furan-2-ylmethyl)-7-methylthieno[3,2-d]pyrimidin-4-amine] | ≤ 30 nM | ≤ 30 nM |
| N[C@H]1CCCC[C@H]1c1sc2c(NCc3cccs3)cc(Cl)nc2c1Br [Compound 53, 2-((1R,2S)-2-aminocyclohexyl)-3-bromo-5-chloro-N-(thiophen-2-ylmethyl)thieno[3,2-b]pyridin-7-amine] | 300 to 1000 nM | 300 to 1000 nM |
| 2-((2R,3R)-3-aminotetrahydrofuran-2-yl)-3-bromo-5-chloro-N-(thiophen-2-ylmethyl)thieno[3,2-b]pyridin-7-amine and 2-((2S,3S)-3-aminotetrahydrofuran-2-yl)-3-bromo-5-chloro-N-(thiophen-2-ylmethyl)thieno[3,2-b]pyridin-7-amine [Compound 151] | 30 to 300 nM | 30 to 300 nM |
| N[C@H]1CCCC[C@@H]1c1cc2nc(Cl)cc(NCc3cccs3)c2s1 [Compound 21, 2-((1S,2S)-2-aminocyclohexyl)-5-chloro-N-(thiophen-2-ylmethyl)thieno[3,2-b]pyridin-7-amine] | 30 to 300 nM | 30 to 300 nM |
| N[C@@H]1CC=CC[C@H]1c1sc2c(NCc3ccsc3)cc(Cl)nc2c1Br [Compound 415, 2-((1R,6R)-6-aminocyclohex-3-en-1-yl)-3-bromo-5-chloro-N-(thiophen-3-ylmethyl)thieno[3,2-b]pyridin-7-amine] | 300 to 1000 nM | 300 to 1000 nM |
| C#Cc1c([C@@H]2CCCC[C@H]2N)sc2c(NCc3ccccc3F)cc(Cl)nc12 [Compound 430, 2-((1R,2R)-2-aminocyclohexyl)-5-chloro-3-ethynyl-N-(2-fluorobenzyl)thieno[3,2-b]pyridin-7-amine] | 30 to 300 nM | 30 to 300 nM |
| CCOC(=O)C1=CC[C@H](c2sc3c(NCc4cccs4)cc(Cl)nc3c2C)[C@@H](N)C1 [Compound 277, ethyl (4S,5S)-5-amino-4-(5-chloro-3-methyl-7-((thiophen-2-ylmethyl)amino)thieno[3,2-b]pyridin-2-yl)cyclohex-1-ene-1-carboxylate] | 30 to 300 nM | ≤ 30 nM |
| 5-(5-chloro-2-((2R,3R)-3-(methylamino)tetrahydro-2H-pyran-2-yl)-7-((thiophen-2-ylmethyl)amino)thieno[3,2-b]pyridin-3-yl)pent-4-yn-1-ol and 5-(5-chloro-2-((2S,3S)-3-(methylamino)tetrahydro-2H-pyran-2-yl)-7-((thiophen-2-ylmethyl)amino)thieno[3,2-b]pyridin-3-yl)pent-4-yn-1-ol [Compound 309] | 30 to 300 nM | 30 to 300 nM |
| C#Cc1c([C@@H]2CCCC[C@H]2N)sc2c(NCc3ccccc3)cc(Cl)nc12 [Compound 344, 2-((1R,2R)-2-aminocyclohexyl)-N-benzyl-5-chloro-3-ethynylthieno[3,2-b]pyridin-7-amine] | 30 to 300 nM | 30 to 300 nM |
| 3-bromo-5-chloro-2-[(2R,3S)-3-aminotetrahydropyran-2-yl]-N-(2-thienylmethyl)thieno[3,2-b]pyridin-7-amine and 3-bromo-5-chloro-2-[(2S,3R)-3-aminotetrahydropyran-2-yl]-N-(2-thienylmethyl)thieno[3,2-b]pyridin-7-amine [Compound 20] | 30 to 300 nM | 30 to 300 nM |
| [2H]C1=C([2H])C([2H])([2H])[C@H](c2sc3c(NCc4ccccc4)cc(Cl)nc3c2C)[C@@H](N)C1([2H])[2H] [Compound 292, 2-((1S,6S)-6-aminocyclohex-3-en-1-yl-2,2,3,4,5,5-d6)-N-benzyl-5-chloro-3-methylthieno[3,2-b]pyridin-7-amine] | 30 to 300 nM | 30 to 300 nM |
| N[C@H]1CCCO[C@@H]1c1c(Cl)c2nc(Cl)cc(NCc3cccs3)c2n1C(F)F [Compound 262, 2-((2S,3S)-3-aminotetrahydro-2H-pyran-2-yl)-3,5-dichloro-1-(difluoromethyl)-N-(thiophen-2-ylmethyl)-1H-pyrrolo[3,2-b]pyridin-7-amine] | 30 to 300 nM | 30 to 300 nM |
| N[C@H]1CCCO[C@@H]1c1c(Br)c2nc(Cl)cc(NCc3ccco3)c2n1C(F)F [Compound 270, 2-((2S,3S)-3-aminotetrahydro-2H-pyran-2-yl)-3-bromo-5-chloro-1-(difluoromethyl)-N-(furan-2-ylmethyl)-1H-pyrrolo[3,2-b]pyridin-7-amine] | 30 to 300 nM | 30 to 300 nM |
| 2-((1R,2R,6S)-2-amino-6-fluorocyclohexyl)-3-bromo-5-chloro-N-(thiophen-2-ylmethyl)thieno[3,2-b]pyridin-7-amine and 2-((1S,2S,6R)-2-amino-6-fluorocyclohexyl)-3-bromo-5-chloro-N-(thiophen-2-ylmethyl)thieno[3,2-b]pyridin-7-amine [Compound 335] | 30 to 300 nM | 30 to 300 nM |
| Cc1c([C@H]2CC=C(C(=O)N3CCOCC3)C[C@@H]2N)sc2c(NCc3cccs3)cc(Cl)nc12 [Compound 313, ((4S,5S)-5-amino-4-(5-chloro-3-methyl-7-((thiophen-2-ylmethyl)amino)thieno[3,2-b]pyridin-2-yl)cyclohex-1-en-1-yl)(morpholino)methanone] | 30 to 300 nM | 30 to 300 nM |
| N[C@@H]1CCCCC[C@H]1c1sc2c(NCc3cccs3)cc(Cl)nc2c1I [Compound 157, 2-((1R,2R)-2-aminocycloheptyl)-5-chloro-3-iodo-N-(thiophen-2-ylmethyl)thieno[3,2-b]pyridin-7-amine] | > 1000 nM | > 1000 nM |
| N[C@H]1CCCCC[C@@H]1c1sc2c(NCc3cccs3)cc(Cl)nc2c1Cl [Compound 79, 2-((1S,2S)-2-aminocycloheptyl)-3,5-dichloro-N-(thiophen-2-ylmethyl)thieno[3,2-b]pyridin-7-amine] | 30 to 300 nM | 30 to 300 nM |

From US20250382305A1 (PTC THERAPEUTICS, INC., priority 2022, published 2025)
